Measurements as given in patent US9221814B2, “Heterocyclic guanidine F1F0-atpase inhibitors and therapeutic uses thereof” (Lycera Corporation, priority 2012, dated 2015).
Read-outs that look alike come from different tables or passages of the source.

What was measured:
Ramos cells = test: Cytotoxicity in Ramos cells; format: cell-based; details: detection limit EC50=16 μM, read-out: Ramos Cell EC50
Protocol: (§1) Exemplary compounds described in above Examples were tested for activity against F1F0-ATPase by measuring the ability of the compounds to inhibit ATP synthesis. In addition, the compounds were assessed for cytotoxicity in Ramos cells. Inhibition of F1F0-ATPase activity in synthesizing ATP and cytotoxicity in Ramos cells were measured according to the procedures described in K. M. Johnson et al. Chemistry & Biology 2005, 12, 485-496.

F1F0-ATPase = target: T1, F1F0-ATPase (Bos taurus, UniProt P13621); test: Inhibition of F1F0-ATPase activity in synthesizing ATP (ATP synthesis inhibition); format: biochemical; details: detection limit IC50=16 μM, read-out: ATP Syn IC50
T1 construct: from tissue
Protocol: as §1

Structure (SMILES) | IC50 (F1F0-ATPase) [µM] | EC50 (Ramos cells) [µM] | EC50 (Ramos cells; Homo sapiens) [µM]
COC[C@H](C)N/C(=N/C(=O)c1cnoc1C)Nc1cc(-c2cc(F)cc(F)c2)[nH]n1 [Compound A-80] | 5 to 16 | > 16 | 
Cn1cc(C(=O)/N=C(/NCC(C)(C)C)Nc2cc(-c3ccc(O)cc3F)[nH]n2)c(C(F)(F)F)n1 [Compound A-138] | > 16 | > 16 | 
CCOC(=O)NC1CCC(N/C(=N/C(=O)c2cn(C)nc2C(F)(F)F)NCc2ccc(Cl)c(F)c2)CC1 (stereo not drawn) [Compound A-218] | > 16 |  | 5 to 16
CC(C)N/C(=N/C(=O)c1ccn(C(C)C)n1)Nc1cc(-c2ccc(F)cc2)n[nH]1 [Compound A-57] | 5 to 16 | 5 to 16 | 
CCOCCN/C(=N/C(=O)c1snnc1C)Nc1cc(-c2ccc(F)cc2)[nH]n1 [Compound A-121] | > 16 | > 16 | 
COc1cccc(CN/C(=N/C(=O)c2ccn(C)n2)Nc2cc(-c3ccc(F)cc3)n[nH]2)c1 [Compound A-45] | 5 to 16 | 5 to 16 | 
Cn1cc(C(=O)/N=C(\Nc2cc(-c3ccc(O)c(F)c3)n[nH]2)Nc2ccc(F)c(O)c2F)c(C(F)(F)F)n1 [Compound 5, N-(((2,4-Difluoro-3-hydroxyphenyl)amino)((3-(3-fluoro-4-hydroxyphenyl)-1H-pyrazol-5-yl)amino)methylene)-1-methyl-3-(trifluoromethyl)-1H-pyrazole-4-carboxamide] | 5 to 16 |  | 5 to 16
Cc1oncc1C(=O)/N=C(/NCC(C)C)Nc1cc(-c2ccc(F)cc2)[nH]n1 [Compound A-123] | > 16 | > 16 | 
COc1ccc(-c2cc(N/C(=N\C(=O)c3cn(C)nc3C(F)(F)F)Nc3cc(Cl)ccc3F)[nH]n2)cc1F [Compound A-160] | 5 to 16 | > 16 | 
Cn1cc(C(=O)/N=C(\Nc2n[nH]c3cc(F)ccc23)NC(C)(C)C)c(C(F)(F)F)n1 [Compound A-206] | 5 to 16 | < 5 | 
Cc1oncc1C(=O)/N=C(\Nc1cc(-c2ccc(Cl)cc2)n[nH]1)NC(C)(C)C [Compound A-68] | < 5 | < 5 | 
COc1ccc(-c2cc(N/C(=N\C(=O)c3cn(C)nc3C(F)(F)F)Nc3ccc(C(C)(C)C)cc3)[nH]n2)cc1F [Compound A-148] | 5 to 16 | 5 to 16 | 
COCC(C)NC(=NC(=O)c1cn(C)nc1C(F)(F)F)Nc1n[nH]c2cncc(F)c12 (stereo not drawn) [Compound A-142] | > 16 |  | 5 to 16
Cc1oncc1C(=O)/N=C(/NCCCOC(C)C)Nc1cc(-c2cc(F)cc(Cl)c2)[nH]n1 [Compound A-103] | > 16 | > 16 | 
Cc1cc(C(=O)/N=C(\Nc2cc(-c3ccc(F)cc3)n[nH]2)NC(C)C)c(C(F)(F)F)o1 [Compound A-195] | < 5 | 5 to 16 | 
CCC(C)N/C(=N/C(=O)c1cnoc1C)Nc1cc(-c2cc(F)cc(F)c2)n[nH]1 (stereo not drawn) [Compound A-88] | < 5 | 5 to 16 | 
CCOCCCN/C(=N/C(=O)c1cnoc1C)Nc1cc(-c2ccc(F)cc2)n[nH]1 [Compound A-105] | > 16 | > 16 | 
Cn1cc(C(=O)/N=C(/Nc2ccc(C(C)(C)C)cc2)Nc2cc(-c3ccc(O)cc3F)n[nH]2)c(C(F)(F)F)n1 [Compound A-151] | < 5 | < 5 | 
Cn1cc(C(=O)/N=C(/Nc2cccc(O)c2)Nc2cc(-c3ccc(O)c(F)c3)n[nH]2)c(C(F)(F)F)n1 [Compound A-170] | 5 to 16 | < 5 | 
CC(C)CN/C(=N\C(=O)c1cn(C)nc1C(F)(F)F)Nc1cc(-c2cc(F)cc(F)c2)n[nH]1 [Compound A-26] | < 5 | < 5 | 
Cn1nc(C(C)(C)C)cc1C(=O)/N=C(\Nc1cc(-c2ccc(Cl)cc2)n[nH]1)NC1CCCC1 [Compound A-74] | < 5 | < 5 | 
Cn1cc(C(=O)/N=C(\Nc2cc(-c3ccc(O)cc3F)[nH]n2)NC(C)(C)C)c(C(F)(F)F)n1 [Compound A-136] | < 5 | < 5 | 

Further lines, with some results ahead:

IC50 (F1F0-ATPase) [µM] | Structure (SMILES) | EC50 (Ramos cells) [µM] | EC50 (Ramos cells; Homo sapiens) [µM]
< 5 | Cc1cc(Cl)ccc1N/C(=N/C(=O)c1cn(C)nc1C(F)(F)F)Nc1cc(-c2ccc(O)c(F)c2)n[nH]1 [Compound A-187] | < 5 | 
< 5 | Cc1cc(C(=O)/N=C(/NCC(C)C)Nc2cc(-c3cc(F)cc(F)c3)n[nH]2)n(C)n1 [Compound A-83] | 5 to 16 | 
< 5 | Cn1cc(C(=O)/N=C(\Nc2cc(-c3cc(O)ccc3Cl)n[nH]2)NC(C)(C)C)c(C(F)(F)F)n1 [Compound A-181] | 5 to 16 | 
< 5 | COC[C@H](C)N/C(=N/C(=O)c1cc(C(C)(C)C)nn1C)Nc1cc(-c2ccc(Cl)cc2)n[nH]1 [Compound A-76] | < 5 | 
< 5 | Cn1cc(C(=O)/N=C(/Nc2ccc(F)c(Cl)c2)Nc2cc(-c3ccc(O)c(F)c3)n[nH]2)c(C(F)(F)F)n1 [Compound A-163] | < 5 | 
< 5 | CC(C)n1ccc(C(=O)/N=C(\Nc2cc(-c3ccc(F)cc3)n[nH]2)NC(C)(C)C)n1 [Compound A-56] | 5 to 16 | 
< 5 | CCn1ccc(C(=O)/N=C(\Nc2cc(-c3ccc(F)cc3)n[nH]2)NC(C)(C)C)n1 [Compound A-60] | 5 to 16 | 
< 5 | CCOC(=O)NC1CCC(N/C(=N\C(=O)c2cc(C)oc2C(F)(F)F)Nc2ccccc2C)CC1 (stereo not drawn) [Compound A-216] |  | 5 to 16
< 5 | O=C(/N=C(/NCc1ccc(F)cc1Cl)Nc1cc(C(F)(F)F)n[nH]1)c1nccs1 [Compound A-198] | < 5 | 
< 5 | CC(C)(C)N/C(=N/C(=O)c1ccc(Cl)s1)Nc1cc(C(F)(F)F)n[nH]1 [Compound A-211] | < 5 | 
< 5 | CCOCCCN/C(=N/C(=O)c1cc(C)oc1C(F)(F)F)Nc1cc(-c2cc(F)cc(F)c2)n[nH]1 [Compound A-200] | 5 to 16 | 
< 5 | CC(C)(C)CN/C(=N/C(=O)c1ccc(Cl)s1)Nc1cc(C(F)(F)F)n[nH]1 [Compound A-208] | < 5 | 
< 5 | CCCn1ccc(C(=O)/N=C(\Nc2cc(-c3ccc(F)cc3)n[nH]2)NC(C)(C)C)n1 [Compound A-58] | < 5 | 
< 5 | Cc1oncc1C(=O)/N=C(\Nc1cc(-c2cc(F)cc(F)c2)n[nH]1)NC(C)(C)C [Compound A-87] | < 5 | 
< 5 | CCOC(=O)NC1CCC(N/C(=N\C(=O)c2cc(C)oc2C(F)(F)F)Nc2ccccc2C(F)(F)F)CC1 (stereo not drawn) [Compound A-214] |  | > 16
< 5 | Cc1oncc1C(=O)N=C(Nc1cc(-c2cc(F)cc(Cl)c2)n[nH]1)NC1CCCC1 [Compound A-97] |  | < 5
< 5 | Cn1nc(C(C)(C)C)cc1C(=O)/N=C(\Nc1cc(-c2ccc(F)cc2)n[nH]1)NC1CCCC1 [Compound A-51] | < 5 | 
< 5 | O=C(/N=C(\Nc1cc(C(F)(F)F)n[nH]1)NC1CCOCC1)c1ccc(Cl)s1 [Compound A-209] | < 5 | 
< 5 | COc1ccc(-c2cc(NC(=NC(=O)c3cn(C)nc3C(F)(F)F)NCC(C)(C)C)[nH]n2)cc1F [Compound A-130] |  | < 5
< 5 | Cn1cc(C(=O)N=C(Nc2cc(-c3ccc(O)c(F)c3)n[nH]2)Nc2ccccc2Cl)c(C(F)(F)F)n1 [Compound A-171] |  | < 5
